Measured values taken from PubChem BioAssay AID330 (DTP/NCI, 2004).
“And” between values parts separate entries of the source, which are not always exact repeats. Equal values may be shown once. Inconclusive results and toxic doses are left out. How the source made its calls: active means survival T/C of 150% or more; inactive means T/C below 125% in these data.

System: P388 leukemia ip, CD2F1 mice, survival T/C
Assay: NCI In Vivo Anticancer Drug Screen. Data for tumor model P388 Leukemia (intraperitoneal) in CD2F1 (CDF1) mice
Settings: endpoint: median survival time, higher = longer survival
Summary of the method: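 Mice carrying the transplanted tumor received test compound or vehicle. Survival was recorded in each group, and the value is the treated-group measurement divided by that of the vehicle-treated control group.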

[1] = dose: 50.0 mg/kg/injection, schedule: Q01DX005 (ip), vehicle: saline with Tween-80
[2] = dose: 100.0 mg/kg/injection, schedule: Q01DX005 (ip), vehicle: saline with Tween-80
[3] = dose: 200.0 mg/kg/injection, schedule: Q01DX005 (ip), vehicle: saline with Tween-80
[4] = dose: 12.5 mg/kg/injection, schedule: Q01DX005 (ip), vehicle: Klucel (hydroxypropylcellulose) (HPC)
[5] = dose: 25.0 mg/kg/injection, schedule: Q01DX005 (ip), vehicle: Klucel (hydroxypropylcellulose) (HPC)
[6] = dose: 50.0 mg/kg/injection, schedule: Q01DX005 (ip), vehicle: Klucel (hydroxypropylcellulose) (HPC)
[7] = dose: 100.0 mg/kg/injection, schedule: Q01DX005 (ip), vehicle: Klucel (hydroxypropylcellulose) (HPC)
[8] = dose: 200.0 mg/kg/injection, schedule: Q01DX005 (ip), vehicle: Klucel (hydroxypropylcellulose) (HPC)
[9] = dose: 25.0 mg/kg/injection, schedule: Q01DX009 (ip), vehicle: other
[10] = dose: 50.0 mg/kg/injection, schedule: Q01DX009 (ip), vehicle: other
[11] = dose: 100.0 mg/kg/injection, schedule: Q01DX009 (ip), vehicle: other
[12] = dose: 200.0 mg/kg/injection, schedule: Q01DX009 (ip), vehicle: other
[13] = dose: 100.0 mg/kg/injection, schedule: Q04DX002 (ip), vehicle: saline with Tween-80
[14] = dose: 200.0 mg/kg/injection, schedule: Q01DX009 (ip), vehicle: Klucel (hydroxypropylcellulose) (HPC)
[15] = dose: 100.0 mg/kg/injection, schedule: Q01DX009 (ip), vehicle: saline
[16] = dose: 200.0 mg/kg/injection, schedule: Q01DX009 (ip), vehicle: saline

Measured: T/C

c1csc(C2=NCCC2)c1
inactive: [1] 100 % of control | [2] 102 % of control | [3] 102 % of control

Cc1noc(NS(=O)(=O)c2ccc(N=Nc3cc(N=Nc4ccc(S(=O)(=O)Nc5onc(C)c5C)cc4)c4c(NC(=O)C(Cl)Cl)cccc4c3OC(=O)C(Cl)Cl)cc2)c1C (tested in a mixture with another compound)
inactive: dose: 50.0 mg/kg/injection, schedule: Q01DX009 (ip), vehicle: saline with Tween-80 100 % of control and 106 % of control | dose: 100.0 mg/kg/injection, schedule: Q01DX009 (ip), vehicle: saline with Tween-80 104 % of control and 106 % of control

Oc1c(Br)cc(Br)cc1Oc1c(O)c(Br)c(Br)c(Br)c1Br
inactive: dose: 6.25 mg/kg/injection, schedule: Q01DX005 (ip), vehicle: Klucel (hydroxypropylcellulose) (HPC) 104 % of control | [4] 102 % of control | [5] 104 % of control | [6] 100 % of control and 101 % of control | [7] 100 % of control | [8] 99 % of control

COC1OCC(NC(=O)c2ccccc2)C(OS(C)(=O)=O)C1OS(C)(=O)=O (stereo not given)
inactive: dose: 12.5 mg/kg/injection, schedule: Q01DX009 (ip), vehicle: other 97 % of control | [9] 87 % of control | [10] 106 % of control | [11] 95 % of control | [12] 88 % of control

Oc1ccccc1C=Nc1ccc2c(ccc3c4ccccc4ccc23)c1
inactive: [6] 111 % of control | [7] 102 % of control | [8] 116 % of control

Cc1cc(NCCCN(C)C)c2ccc3cc4ccccc4cc3c2n1
inactive: dose: 25.0 mg/kg/injection, schedule: Q04DX002 (ip), vehicle: saline with Tween-80 93 % of control | dose: 50.0 mg/kg/injection, schedule: Q04DX002 (ip), vehicle: saline with Tween-80 92 % of control | [13] 108 % of control and 94 % of control

O=C(NC(=O)C(F)(F)C(F)(F)F)Nc1ccc(Cl)cc1
inactive: dose: 50.0 mg/kg/injection, schedule: Q01DX009 (ip), vehicle: Klucel (hydroxypropylcellulose) (HPC) 115 % of control | dose: 100.0 mg/kg/injection, schedule: Q01DX009 (ip), vehicle: Klucel (hydroxypropylcellulose) (HPC) 98 % of control | [14] 101 % of control

CC1(C)CC(NCCCN(CCO)CCO)CC(C)(C)N1O
inactive: dose: 30.0 mg/kg/injection, schedule: Q01DX005 (ip), vehicle: saline 96 % of control | dose: 60.0 mg/kg/injection, schedule: Q01DX005 (ip), vehicle: saline 99 % of control | dose: 120.0 mg/kg/injection, schedule: Q01DX005 (ip), vehicle: saline 96 % of control

CC1=NN(C2=NS(=O)(=O)c3ccccc3N2c2ccccc2)C(=O)C1
inactive: [13] 108 % of control | dose: 200.0 mg/kg/injection, schedule: Q04DX002 (ip), vehicle: saline with Tween-80 106 % of control | dose: 400.0 mg/kg/injection, schedule: Q04DX002 (ip), vehicle: saline with Tween-80 97 % of control

O=[N+]([O-])c1c(Cl)cc(Cl)c(-c2c(Cl)cc(Cl)c([N+](=O)[O-])c2Cl)c1Cl
inactive: [9] 102 % of control | [10] 106 % of control | [11] 107 % of control | [12] 106 % of control | dose: 400.0 mg/kg/injection, schedule: Q01DX009 (ip), vehicle: other 105 % of control

CCCCNC(C)(C)C(SSSC(c1cccs1)C(C)(C)NCCCC)c1cccs1 (stereo not given)
inactive: [1] 121 % of control | [2] 120 % of control | dose: 100.0 mg/kg/injection, schedule: Q04DX003 (ip), vehicle: saline with Tween-80 101 % of control | [3] 123 % of control | dose: 200.0 mg/kg/injection, schedule: Q04DX003 (ip), vehicle: saline with Tween-80 105 % of control | dose: 400.0 mg/kg/injection, schedule: Q04DX003 (ip), vehicle: saline with Tween-80 105 % of control

CCOC(=O)C1C(=O)C(=O)OC1CC(C)C (stereo not given)
inactive: [4] 109 % of control | [5] 103 % of control | [6] 107 % of control and 113 % of control

O=S(=O)(Nc1ccc(Br)c2ccccc12)c1ccccc1
inactive: dose: 18.75 mg/kg/injection, schedule: Q01DX001 (ip), vehicle: saline with Tween-80 95 % of control | dose: 37.5 mg/kg/injection, schedule: Q01DX001 (ip), vehicle: saline with Tween-80 95 % of control | dose: 75.0 mg/kg/injection, schedule: Q01DX001 (ip), vehicle: saline with Tween-80 95 % of control

C#CCOc1ccccc1O
inactive: [15] 100 % of control | [16] 110 % of control | dose: 400.0 mg/kg/injection, schedule: Q01DX009 (ip), vehicle: saline 115 % of control

C=C1[C@@]2(O)CCCC[C@@H]2C[N+]1(C)C
inactive: dose: 50.0 mg/kg/injection, schedule: Q01DX009 (ip), vehicle: saline 91 % of control | [15] 90 % of control | [16] 95 % of control

C1CCC2=NCCCN2CC1
inactive: dose: 6.25 mg/kg/injection, schedule: Q01DX009 (ip), vehicle: Klucel (hydroxypropylcellulose) (HPC) 107 % of control | dose: 12.5 mg/kg/injection, schedule: Q01DX009 (ip), vehicle: Klucel (hydroxypropylcellulose) (HPC) 103 % of control | dose: 25.0 mg/kg/injection, schedule: Q01DX009 (ip), vehicle: Klucel (hydroxypropylcellulose) (HPC) 105 % of control

Cc1noc(-c2ccc([N+](=O)[O-])o2)n1
inactive: dose: 130.0 mg/kg/injection, schedule: Q01DX009 (ip), vehicle: Klucel (hydroxypropylcellulose) (HPC) 100 % of control | [14] 104 % of control

O=C(N/C(=C\c1ccc2c(c1)OCO2)c1nc2ccccc2s1)c1ccccc1
inactive: dose: 60.0 mg/kg/injection, schedule: Q01DX005 (ip), vehicle: saline with Tween-80 107 % of control | dose: 120.0 mg/kg/injection, schedule: Q01DX005 (ip), vehicle: saline with Tween-80 121 % of control | dose: 240.0 mg/kg/injection, schedule: Q01DX005 (ip), vehicle: saline with Tween-80 123 % of control

[CH3][Ge]([Cl])([c]1ccccc1)[c]1cccc2ccccc12 (stereo not given)
inactive: dose: 100.0 mg/kg/injection, schedule: Q04DX003 (ip), vehicle: saline 102 % of control | dose: 200.0 mg/kg/injection, schedule: Q04DX003 (ip), vehicle: saline 97 % of control | dose: 400.0 mg/kg/injection, schedule: Q04DX003 (ip), vehicle: saline 101 % of control

COC(=O)/C=N/NS(=O)(=O)c1cccc(N)c1
inactive: dose: 12.5 mg/kg/injection, schedule: Q01DX009 (ip), vehicle: water 99 % of control | dose: 25.0 mg/kg/injection, schedule: Q01DX009 (ip), vehicle: water 107 % of control | dose: 50.0 mg/kg/injection, schedule: Q01DX009 (ip), vehicle: water 92 % of control | dose: 100.0 mg/kg/injection, schedule: Q01DX009 (ip), vehicle: water 99 % of control and 102 % of control | dose: 200.0 mg/kg/injection, schedule: Q01DX009 (ip), vehicle: water 98 % of control
